# Reference: US8293736B2, “Purine compounds selective for PI3K P110 delta, and methods of use” (F. Hoffmann la Roche AG, priority 2010, dated 2012)
# Assays:
# [1] = target: T1, p110 delta (Homo sapiens, UniProt O00329); test: PI3K isoform inhibition assay (fluorescence polarization), p110 delta; type: biochemical; details: Ki apparent, Morrison equation; 25 μM ATP, 10 μM PIP2
# T1 construct: purchased Upstate Group, Millipore; Dundee, UK
# Experimental: (§1) Determination of the activity of PI3 kinase activity of Formula I compounds is possible by a number of direct and indirect detection methods.
# (§2) PI3K enzymatic activity was assayed by measuring the amount of product phosphatidylinositol 3,4,5-phosphate (PIP3) formed from substrate 4,5 phosphatidylinositol 4,5-phosphate (PIP2) using a fluorescence polarization displacement assay. The decrease in fluorescence polarization of a fluorescent PIP3 probe is measured as it is displaced from a PIP3-binding protein GRP-1 detector by PI3K-catalyzed product. […] The kinase reactions were initiated by the addition of 40 ng/mL p110α/p85α, 300 ng/mL p110β/p85α, 40 ng/mL p110γ, or 40 ng/mL p110δ/p85α (Upstate Group, Millipore; Dundee, UK), and 10 μM PIP2 (Echelon Biosciences) to the wells. […] After 60 minutes of incubation at room temperature to allow equilibration of labeled and unlabeled PIP3 binding, the parallel and perpendicular components of the fluorescence emissions from each sample were measured at an excitation wavelength of 530 nm and an emission wavelength of 590 nm using an Envision fluorescent plate reader with a rhodamine filter (PerkinElmer Life and Analytical Sciences; Wellesley, Mass.). The assay is capable of detecting 0.1-2.0 μM PIP3 product. The Ki apparent values were obtained by fitting the dose-dependent inhibition data to the Morrison equation for tight-binding, competitive inhibitors. Reference: R. A. Copeland, Enzymes. “A Practical Introduction to Structure, Mechanism and Data Analysis”.
# The Formula I compound was serially diluted in 100% DMSO. The kinase reaction was incubated for 1 h at room temperature, and the reaction was terminated by the addition of PBS. IC50 values were subsequently determined using sigmoidal dose-response curve fit (variable slope). […]
# [2] = target: T2, p110 alpha (Homo sapiens, UniProt P42336); test: PI3K isoform inhibition assay (fluorescence polarization), p110 alpha; type: biochemical; details: delta/alpha selectivity ratio
# T2 construct: purchased Upstate Group, Millipore; Dundee, UK
# T2 sequence (P42336 whole entry, species assumed, canonical isoform): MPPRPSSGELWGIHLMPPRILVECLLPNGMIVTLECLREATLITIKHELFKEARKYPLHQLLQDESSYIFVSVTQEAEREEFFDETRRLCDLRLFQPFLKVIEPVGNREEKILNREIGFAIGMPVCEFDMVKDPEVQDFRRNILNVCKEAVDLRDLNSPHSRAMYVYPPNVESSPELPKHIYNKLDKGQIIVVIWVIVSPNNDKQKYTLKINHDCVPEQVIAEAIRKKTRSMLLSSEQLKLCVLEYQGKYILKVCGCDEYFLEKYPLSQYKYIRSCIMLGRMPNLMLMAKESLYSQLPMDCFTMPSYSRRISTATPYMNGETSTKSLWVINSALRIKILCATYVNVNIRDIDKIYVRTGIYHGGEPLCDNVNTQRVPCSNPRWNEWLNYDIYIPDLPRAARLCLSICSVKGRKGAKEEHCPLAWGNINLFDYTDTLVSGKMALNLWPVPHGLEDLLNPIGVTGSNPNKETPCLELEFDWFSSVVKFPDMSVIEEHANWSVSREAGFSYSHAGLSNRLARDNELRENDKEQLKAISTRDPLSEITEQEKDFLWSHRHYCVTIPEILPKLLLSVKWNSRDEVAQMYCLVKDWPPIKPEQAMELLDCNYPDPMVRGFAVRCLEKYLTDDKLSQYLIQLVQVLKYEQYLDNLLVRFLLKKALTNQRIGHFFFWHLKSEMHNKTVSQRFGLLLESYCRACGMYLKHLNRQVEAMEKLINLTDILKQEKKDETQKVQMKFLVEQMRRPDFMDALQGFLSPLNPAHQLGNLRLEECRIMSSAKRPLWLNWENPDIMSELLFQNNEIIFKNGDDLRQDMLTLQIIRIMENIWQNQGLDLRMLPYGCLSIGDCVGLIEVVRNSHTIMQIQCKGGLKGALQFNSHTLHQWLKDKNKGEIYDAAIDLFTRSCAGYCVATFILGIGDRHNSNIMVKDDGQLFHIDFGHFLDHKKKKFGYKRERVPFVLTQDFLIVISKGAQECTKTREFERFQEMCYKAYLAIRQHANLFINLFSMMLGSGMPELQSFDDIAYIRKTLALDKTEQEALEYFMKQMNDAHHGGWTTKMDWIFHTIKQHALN
# T2 sequence (P27986 whole entry partner, species assumed, canonical isoform): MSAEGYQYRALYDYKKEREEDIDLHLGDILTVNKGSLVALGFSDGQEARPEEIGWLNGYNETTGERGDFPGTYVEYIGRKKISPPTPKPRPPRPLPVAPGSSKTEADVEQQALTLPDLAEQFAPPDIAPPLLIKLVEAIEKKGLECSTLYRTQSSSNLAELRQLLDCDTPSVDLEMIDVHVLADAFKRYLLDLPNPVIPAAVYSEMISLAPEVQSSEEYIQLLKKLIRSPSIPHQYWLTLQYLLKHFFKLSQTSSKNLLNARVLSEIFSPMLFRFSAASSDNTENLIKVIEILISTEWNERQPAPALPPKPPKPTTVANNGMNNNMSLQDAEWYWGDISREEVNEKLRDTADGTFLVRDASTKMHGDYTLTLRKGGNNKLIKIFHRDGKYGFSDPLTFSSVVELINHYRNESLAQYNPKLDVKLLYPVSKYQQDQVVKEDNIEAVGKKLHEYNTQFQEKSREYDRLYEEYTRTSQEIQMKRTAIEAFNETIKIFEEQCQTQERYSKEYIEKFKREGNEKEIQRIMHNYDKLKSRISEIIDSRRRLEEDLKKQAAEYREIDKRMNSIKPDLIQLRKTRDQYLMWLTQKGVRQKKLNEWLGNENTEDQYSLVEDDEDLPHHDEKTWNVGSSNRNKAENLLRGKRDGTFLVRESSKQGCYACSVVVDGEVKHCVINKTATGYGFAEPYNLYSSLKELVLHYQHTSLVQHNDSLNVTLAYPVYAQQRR
# Experimental: as §1, §2
# The same protocol may be used to establish Ki values for p110α (alpha) PI3K binding.
# The four Class I PI 3-kinases are cloned into baculovirus vectors as follows: […]
# T1 sequence (O00329 whole entry, canonical isoform): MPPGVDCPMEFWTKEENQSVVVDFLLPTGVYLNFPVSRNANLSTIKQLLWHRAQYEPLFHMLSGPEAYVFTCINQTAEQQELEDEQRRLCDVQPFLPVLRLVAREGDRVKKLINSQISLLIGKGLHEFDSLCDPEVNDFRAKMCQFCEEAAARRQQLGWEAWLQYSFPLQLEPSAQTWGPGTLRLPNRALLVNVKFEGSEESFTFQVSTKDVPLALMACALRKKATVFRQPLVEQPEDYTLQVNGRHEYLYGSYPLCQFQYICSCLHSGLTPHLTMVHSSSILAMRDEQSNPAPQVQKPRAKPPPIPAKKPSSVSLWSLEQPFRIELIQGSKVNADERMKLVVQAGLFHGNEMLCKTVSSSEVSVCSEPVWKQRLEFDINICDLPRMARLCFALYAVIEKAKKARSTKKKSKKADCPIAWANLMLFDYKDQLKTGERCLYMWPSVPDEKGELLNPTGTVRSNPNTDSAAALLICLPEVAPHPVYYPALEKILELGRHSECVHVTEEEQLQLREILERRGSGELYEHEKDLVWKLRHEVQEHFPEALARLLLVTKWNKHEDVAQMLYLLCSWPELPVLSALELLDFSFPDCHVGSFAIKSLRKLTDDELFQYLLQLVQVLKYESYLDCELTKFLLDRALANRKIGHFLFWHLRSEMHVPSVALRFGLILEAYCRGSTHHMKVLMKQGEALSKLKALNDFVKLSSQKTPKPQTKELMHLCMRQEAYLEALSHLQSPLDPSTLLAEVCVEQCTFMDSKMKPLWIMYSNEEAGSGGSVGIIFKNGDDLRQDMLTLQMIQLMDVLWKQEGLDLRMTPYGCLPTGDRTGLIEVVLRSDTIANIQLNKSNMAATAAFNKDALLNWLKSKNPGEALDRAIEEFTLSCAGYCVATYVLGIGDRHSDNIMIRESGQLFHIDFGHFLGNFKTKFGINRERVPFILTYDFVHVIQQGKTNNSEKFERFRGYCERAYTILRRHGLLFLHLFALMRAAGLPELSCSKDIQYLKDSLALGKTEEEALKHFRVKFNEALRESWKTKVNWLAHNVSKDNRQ
# T1 sequence (P27986 whole entry partner, canonical isoform): as the sequence (P27986 whole entry partner, species assumed, canonical isoform) above
Ki [1],Ki p110 alpha/ Ki p110 delta [2],SMILES
0.91 nM,188,"CCc1nc2ccccc2n1-c1nc(N2CCOCC2)c2nc(OC3CCNCC3)n(C)c2n1 [Compound 124, 4-(2-(2-ethyl-1H-benzo[d]imidazol-1-yl)-9-methyl-8-(piperidin-4-yloxy)-9H-purin-6-yl)morpholine]"
0.98 nM,485,"Cn1c(OC2CCN(C3CCOCC3)CC2)nc2c(N3CCOCC3)nc(-c3c(F)ccc4[nH]ccc34)nc21 [Compound 125, 4-(2-(5-fluoro-1H-indol-4-yl)-9-methyl-8-(1-(tetrahydro-2H-pyran-4-yl)piperidin-4-yloxy)-9H-purin-6-yl)morpholine]"
1 nM,88,"CC(C)C(=O)N1CC(Oc2nc3c(N4CCOCC4)nc(-c4c(F)ccc5[nH]ccc45)nc3n2C)C1 [Compound 126, 1-(3-(2-(5-fluoro-1H-indol-4-yl)-9-methyl-6-morpholino-9H-purin-8-yloxy)azetidin-1-yl)-2-methylpropan-1-one]"
0.252 nM,105,"Cc1nc2ccccc2n1-c1nc(N2CCOCC2)c2nc(OC3CCN(C4CCOCC4)CC3)n(C)c2n1 [Compound 127, 4-(9-methyl-2-(2-methyl-1H-benzo[d]imidazol-1-yl)-8-(1-(tetrahydro-2H-pyran-4-yl)piperidin-4-yloxy)-9H-purin-6-yl)morpholine]"
1.42 nM,87,"CCc1nc2ccccc2n1-c1nc(N2CCOCC2)c2nc(OC3CN(C(=O)[C@H](C)O)C3)n(C)c2n1 [Compound 129, (S)-1-(3-(2-(2-ethyl-1H-benzo[d]imidazol-1-yl)-9-methyl-6-morpholino-9H-purin-8-yloxy)azetidin-1-yl)-2-hydroxypropan-1-one]"
0.929 nM,31,"CC(C)C(=O)N1CC(Oc2nc3c(N4CCOCC4)nc(-n4c(C(C)(F)F)nc5ccccc54)nc3n2C)C1 [Compound 132, 1-(3-(2-(2-(1,1-difluoroethyl)-1H-benzo[d]imidazol-1-yl)-9-methyl-6-morpholino-9H-purin-8-yloxy)azetidin-1-yl)-2-methylpropan-1-one]"
4.94 nM,90,"Cn1c(OC2CN(C3CCS(=O)(=O)CC3)C2)nc2c(N3CCOCC3)nc(-n3c(CCO)nc4ccccc43)nc21 [Compound 136, 2-(1-(9-methyl-6-morpholino-8-(1-(1,1-dioxo-tetrahydro-2H-thiopyran-4-yl)azetidin-3-yloxy)-9H-purin-2-yl)-1H-benzo[d]imidazol-2-yl)ethanol]"
4.73 nM,121,"CN(C)c1nc2ccccc2n1-c1nc(N2CCOCC2)c2nc(OC3CN(C4CCS(=O)(=O)CC4)C3)n(C)c2n1 [Compound 137, N,N-dimethyl-1-(9-methyl-6-morpholino-8-(1-(1,1-dioxo-tetrahydro-2H-thiopyran-4-yl)azetidin-3-yloxy)-9H-purin-2-yl)-1H-benzo[d] imidazol-2-amine]"
3.91 nM,68,"CC(C)C(=O)N1CC(Oc2nc3c(N4CCOCC4)nc(-n4c(CCO)nc5ccccc54)nc3n2C)C1 [Compound 138, 1-(3-(2-(2-(2-hydroxyethyl)-1H-benzo[d]imidazol-1-yl)-9-methyl-6-morpholino-9H-purin-8-yloxy)azetidin-1-yl)-2-methylpropan-1-one]"
1.42 nM,59,"Cn1c(OC2CN(C3CCS(=O)(=O)CC3)C2)nc2c(N3CCOCC3)nc(-n3c(C(C)(F)F)nc4ccccc43)nc21 [Compound 139, 4-(2-(2-(1,1-difluoroethyl)-1H-benzo[d]imidazol-1-yl)-9-methyl-8-(1-(1,1-dioxo-tetrahydro-2H-thiopyran-4-yl)azetidin-3-yloxy)-9H-purin-6-yl)morpholine]"
1.53 nM,64,"CO[C@H](C)c1nc2ccccc2n1-c1nc(N2CCOCC2)c2nc(OC3CN(C(=O)C(C)C)C3)n(C)c2n1 [Compound 140, (R)-1-(3-(2-(2-(1-methoxyethyl)-1H-benzo[d]imidazol-1-yl)-9-methyl-6-morpholino-9H-purin-8-yloxy)azetidin-1-yl)-2-methylpropan-1-one]"
0.834 nM,54,"CO[C@@H](C)c1nc2ccccc2n1-c1nc(N2CCOCC2)c2nc(OC3CN(C(=O)C(C)C)C3)n(C)c2n1 [Compound 141, (S)-1-(3-(2-(2-(1-methoxyethyl)-1H-benzo[d]imidazol-1-yl)-9-methyl-6-morpholino-9H-purin-8-yloxy)azetidin-1-yl)-2-methylpropan-1-one]"
1.61 nM,96,"CO[C@H](C)c1nc2ccccc2n1-c1nc(N2CCOCC2)c2nc(OC3CN(C4CCS(=O)(=O)CC4)C3)n(C)c2n1 [Compound 142, (R)-4-(2-(2-(1-methoxyethyl)-1H-benzo[d]imidazol-1-yl)-9-methyl-8-(1-(1,1-dioxo-tetrahydro-2H-thiopyran-4-yl)azetidin-3-yloxy)-9H-purin-6-yl)morpholine]"
1.59 nM,50,"CO[C@@H](C)c1nc2ccccc2n1-c1nc(N2CCOCC2)c2nc(OC3CN(C4CCS(=O)(=O)CC4)C3)n(C)c2n1 [Compound 143, (S)-4-(2-(2-(1-methoxyethyl)-1H-benzo[d]imidazol-1-yl)-9-methyl-8-(1-(1,1-dioxo-tetrahydro-2H-thiopyran-4-yl)azetidin-3-yloxy)-9H-purin-6-yl)morpholine]"
0.826 nM,100,"CCc1nc2ccccc2n1-c1nc(N2CCOCC2)c2nc(OC3CN(C(=O)C4(C)CC4)C3)n(C)c2n1 [Compound 145, (3-(2-(2-ethyl-1H-benzo [d]imidazol-1-yl)-9-methyl-6-morpholino-9H-purin-8-yloxy)azetidin-1-yl)(1-methylcyclopropyl)methanone]"
4.46 nM,41,"CCc1nc2ccccc2n1-c1nc(N2CCOCC2)c2nc(OC3CN(C(=O)C4(F)CC4)C3)n(C)c2n1 [Compound 146, (3-(2-(2-ethyl-1H-benzo[d]imidazol-1-yl)-9-methyl-6-morpholino-9H-purin-8-yloxy)azetidin-1-yl)(1-fluorocyclopropyl)methanone]"
2.33 nM,72,"CCc1nc2ccccc2n1-c1nc(N2CCOCC2)c2nc(OC3CN(C(=O)C(C)(C)F)C3)n(C)c2n1 [Compound 147, 1-(3-(2-(2-ethyl-1H-benzo[d]imidazol-1-yl)-9-methyl-6-morpholino-9H-purin-8-yloxy)azetidin-1-yl)-2-fluoro-2-methylpropan-1-one]"
0.34 nM,259,"CCc1nc2ccccc2n1-c1nc(N2CCOCC2)c2nc(OC3CN(C(=O)C4CC4)C3C)n(C)c2n1 (stereo not shown) [Compound 148, cyclopropyl(3-(2-(2-ethyl-1H-benzo[d]imidazol-1-yl)-9-methyl-6-morpholino-9H-purin-8-yloxy)-2-methylazetidin-1-yl)methanone]"
0.444 nM,277,"CCc1nc2ccccc2n1-c1nc(N2CCOCC2)c2nc(OC3CN(C(=O)C(C)C)C3C)n(C)c2n1 (stereo not shown) [Compound 149, 1-(3-(2-(2-ethyl-1H-benzo [d]imidazol-1-yl)-9-methyl-6-morpholino-9H-purin-8-yloxy)-2-methylazetidin-1-yl)-2-methylpropan-1-one]"
2.86 nM,30,"CCc1nc2ccccc2n1-c1nc(N2CCOCC2)c2nc(OC3CN(C(=O)C4(C#N)CC4)C3)n(C)c2n1 [Compound 150, 1-(3-(2-(2-ethyl-1H-benzo [d]imidazol-1-yl)-9-methyl-6-morpholino-9H-purin-8-yloxy)azetidine-1-carbonyl) cyclopropanecarbonitrile]"
0.701 nM,107,"CCc1nc2ccccc2n1-c1nc(N2CCOCC2)c2nc(OC3CN(C(=O)[C@H]4CC45CCC5)C3)n(C)c2n1 [Compound 152, (S)-(3-(2-(2-ethyl-1H-benzo [d]imidazol-1-yl)-9-methyl-6-morpholino-9H-purin-8-yloxy)azetidin-1-yl) (spiro[2.3]hexan-1-yl) methanone]"
0.734 nM,159,"CCc1nc2ccccc2n1-c1nc(N2CCOCC2)c2nc(OC3CN(C(=O)[C@@H]4CC45CCC5)C3)n(C)c2n1 [Compound 153, (R)-(3-(2-(2-ethyl-1H-benzo [d]imidazol-l-yl)-9-methyl-6-morpholino-9H-purin-8-yloxy)azetidin-1-yl) (spiro[2.3]hexan-1-yl) methanone]"
0.573 nM,102,"CCc1nc2ccccc2n1-c1nc(N2CCOCC2)c2nc(OC3CN(C(=O)C4C[C@H]4F)C3)n(C)c2n1 (stereo partly drawn) [Compound 154, (3-(2-(2-ethyl-1H-benzo [d]imidazol-1-yl)-9-methyl-6-morpholino-9H-purin-8-yloxy)azetidin-1-yl)((2R)-2-fluorocyclopropyl)methanone]"
